Results reported in publication PMC6264499, “In silico identification and experimental validation of hits active against KPC-2 β-lactamase” (PLoS ONE, 2018).

How the values were obtained:
recombinant KPC-2 [1] = target: T1, recombinant KPC-2 (Klebsiella pneumoniae, UniProt Q9F663); experiment: KPC-2 inhibition assay, CENTA as reporter substrate; assay type: biochemical; conditions: for IC50: read-out: IC50
T1 construct: made in house; host or cells: E. coli BL21 (DE3)
Description: (§1) The blaKPC-2 gene was kindly provided by Prof. Sergei Vakulenko (University of Notre Dame du Lac, Indiana, USA) and cloned as already reported and transformed into competent E.coli BL21 (DE3) cells for protein expression. 50 mL of Tryptic Soy Broth (TSB) (50 mg/L kanamycin) were inoculated with fresh colonies and grown at 37°C. 4 mL of the overnight culture was used to inoculate 1.3 L of TSB (50 mg/L kanamycin) grown at 37°C with shaking to an optical density of 0.5 measured at 600 nm. Then expression of recombinant bla gene was induced by adding 1.0 mM IPTG (isopropyl-D-thiogalactopyranoside) and the cells were again allowed to grow at 20°C overnight. Bacteria were harvested by centrifugation at 4000 rpm for 20 minutes. The pelleted cells were resuspended in Tris-HCl 50 mM pH 7.4–7.5. Periplasmatic proteins were extracted as reported in the pET System Manual (TB055 10th Edition Rev. B 0403) and subsequently dialyzed in sodium acetate buffer (50 mM, pH 5.0). The protein was conveniently purified in a single step using a Macro-Prep High S resin and eluted using sodium acetate 50 mM pH 5.0 and a sodium chloride (NaCl) linear gradient from 100 to 500 mM. The purified protein was dialyzed overnight in sodium phosphate buffer 50 mM, pH 7.0 [31, 32].
(§2) The hydrolytic activity of KPC-2 was measured using the β-lactam substrates CENTA (100 uM, KM 70 uM) or nitrocefin (114 uM, KM 36 μM) in reaction buffer consisting of 50 mM of PB at pH 7.0 at 25°C with 0.01% v/v Triton X-100 to avoid compound aggregation and promiscuous inhibition.[33] Reactions were monitored using a Beckmann DU640 spectrophotometer at […] for CENTA and 480 nm wavelength for nitrocefin [34]. The test compounds were synthesized as described below or purchased from Enamine, TimTec, Vitas-M, ChemBridge, Otava, Life Chemicals or Apollo Scientific and assayed without further purification. Compounds were dissolved in dimethyl sulfoxide (DMSO) to a concentration of 25 mM and stored at -20°C. The highest concentration at which the compounds were tested was up to 1 mM (depending on their solubility). All experiments were performed in duplicate and the error never exceeded 5%. The reaction was typically initiated by adding KPC-2 to the reaction buffer last. To control for incubation effects, protein was added to the reaction buffer first, and the reaction was initiated by the addition of reporter substrate after 10 minutes of enzyme-compound incubation.
Fig 4 Inhibitory activity of compounds selected from virtual screening. ^[a]Assays were performed in duplicate (errors were less than 5%) with CENTA as reporter substrate (100 μM, km 70 μM). Kinetic were monitored at 25° by following the absorbance variation at λ = 405 nm. ^[b] If no IC50 has been measured, percent inhibition at the highest tested concentration is given in parentheses. For example, > 0.50 (26%) implies that the highest concentration tested was 0.50 mM; at this concentration, the enzyme was inhibited by 26%. Therefore, IC50> 0.50 mM. When % Inhibition was below 10% No Inibition (NI) is reported. ^[c]Assays were run after 10’ incubation of the inhibitor with KPC-2. Reaction was started by the addition of CENTA. […] 0 (11) | 32a: IC50 mM ^[a,b]: 1.24
Competitive inhibition mechanism and the Ki for compound 9a was determined by Lineweaver–Burk (LB) and Dixon plots.

Kpn 53A8 = experiment: MIC of meropenem, alone or 1:1 with compounds, KPC-2 clinical strain; assay type: cell-based, K. pneumoniae; conditions: strain Kpn 53A8
Description: The antimicrobial activity of the best hits 9a and 11a and their derivatives was studied in bacterial cell cultures to investigate their ability to cross the outer membrane reaching the periplasmic space, where KPC-2 is secreted and confined in Gram negative bacteria. Compounds were tested for synergy with the β-lactam antibiotic meropenem against four K. pneumoniae clinical strains, isolated from different patients at the Hospital Universitario Son Espases, Palma de Mallorca, Spain. […] The three additional strains harbored the blaKPC-2 gene and were resistant to meropenem (Table 2). […] However, against strain Kpn 53A8 the MIC value was lowered by a factor of two when meropenem was combined with compounds 32a, 1b, 2b, 5b and 6b while in combination with compound 11a the MIC value was reduced by 4 fold.

recombinant KPC-2 [2] = target: T1, recombinant KPC-2; experiment: KPC-2 inhibition assay, nitrocefin as reporter substrate; assay type: biochemical; conditions: for IC50: nitrocefin 114.28 μM (Km 36 μM), 25°, 485 nm
Description: as §1, §2
Kinetic were monitored at 25° by following the absorbance variation at λ = 485 nm. ^[b] If no IC50 has been measured, percent inhibition at the highest tested concentration is given in parentheses. […] When % Inhibition was below 10% No Inhibition (NI) is reported. TEXT PRINTED IN THE PICTURE: 11a: IC50 mM [a,b]: 0.036 | 1b: IC50 mM [a,b]: > 0.2 (25) | 2b: IC50 mM [a,b]: >0.6 (23) | 3b: IC50 mM [a,b]: Not tested not soluble | 4b: IC50 mM [a,b]: > 0.2 (16) | 5b: IC50 mM [a,b]: > 0.2 (13) | 6b: IC50 mM [a,b]: NI at 0.2 | 7b: IC50 mM [a,b]: >1.0 (30) | 8b: IC50 mM [a,b]: > 1.0 (37) | 9b: IC50 mM [a,b]: NI at 0.5 | 10b: IC50 mM [a,b]: NI at 0.5 | 11b: IC50 mM [a,b]: > 1.0 (37) | 12b: IC50 mM [a,b]: NI at 0.5 | 13b: IC50 mM [a,b]: NI at 0.5 | 14b: IC50 mM [a,b]: >500 (20) DOUBTS OF THE COPYIST ABOUT THIS PICTURE: column head: raised note printed very small, read as [a,b]

[3] = CENTA 100 μM (km 70 μM), 25°, 405 nm, no pre-incubation
[4] = read-out: percent inhibition at the highest tested concentration
[5] = CENTA 100 μM, after 10' incubation of the inhibitor with KPC-2

T1 sequence (Q9F663 25-293, looked up): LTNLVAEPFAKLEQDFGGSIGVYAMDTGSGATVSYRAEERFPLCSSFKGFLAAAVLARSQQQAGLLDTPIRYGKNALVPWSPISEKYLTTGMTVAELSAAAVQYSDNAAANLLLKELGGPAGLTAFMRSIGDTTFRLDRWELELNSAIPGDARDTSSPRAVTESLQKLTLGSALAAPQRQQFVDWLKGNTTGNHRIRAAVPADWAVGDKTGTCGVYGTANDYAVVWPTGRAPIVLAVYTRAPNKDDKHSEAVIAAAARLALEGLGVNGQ

In the case of Cc1n[nH]c(C)c1/C=C/c1cc(C(=O)O)ncn1 [24a], the IC50 (recombinant KPC-2 [1]; [3]) is reported as > 100 µM and the inhibition at 100 µM (recombinant KPC-2 [1]; [4]) is reported as 41%.

COc1ccc2nc(N)sc2c1 [32a] was tested, and the “fold reduction of meropenem MIC in combination with compound” value (shortened to “fold reduction of meropenem MIC”) (Kpn 53A8) was “two” and the “fold less active than 9a” value (recombinant KPC-2 [1]; IC50 vs KPC-2 relative to compound 9a) was 8 fold.

For O=S(=O)(Nc1cccc(-c2nnn[nH]2)c1)c1cccc2cccnc12 [5b, N-(3-(1H-tetrazol-5-yl)phenyl)quinoline-8-sulfonamide], the IC50 (recombinant KPC-2 [2]) was > 200 µM, the inhibition at 200 µM (recombinant KPC-2 [2]; [4]) was 13% and the “fold reduction of meropenem MIC” value (Kpn 53A8) was “two”.

For Cc1nc2cc(S(=O)(=O)Nc3cccc(-c4nnn[nH]4)c3)ccc2n1-c1ccccc1 [11b], the IC50 (recombinant KPC-2 [2]) was > 1000 µM and the inhibition at 1000 µM (recombinant KPC-2 [2]; [4]) was 37%.

With COc1ccc2[nH]nc(C(=O)O)c2c1 [1a] the IC50 (recombinant KPC-2 [1]; [3]) was > 330 µM and the inhibition at 330 µM (recombinant KPC-2 [1]; [4]) was 30%.

For O=S(=O)(Nc1cccc(-c2nnn[nH]2)c1)c1cccc(F)c1 [1b, N-(3-(1H-tetrazol-5-yl)phenyl)-3-fluorobenzenesulfonamide], the IC50 (recombinant KPC-2 [2]) was > 200 µM, the inhibition at 200 µM (recombinant KPC-2 [2]; [4]) was 25% and the “fold reduction of meropenem MIC” value (Kpn 53A8) was “two”.

Cc1nn(CC(=O)O)c2[nH]c(=O)cc(C(F)F)c12 [16a] was tested, and the IC50 (recombinant KPC-2 [1]; [3]) was > 1000 µM and the inhibition at 1000 µM (recombinant KPC-2 [1]; [4]) was 17%.

For Cc1cc(C(=O)O)cc(S(=O)(=O)Nc2cccc(-c3nnn[nH]3)c2)c1C [8b], the IC50 (recombinant KPC-2 [2]) was > 1000 µM and the inhibition at 1000 µM (recombinant KPC-2 [2]; [4]) was 37%.

With O=S(=O)(/C=C/c1cccc(Br)c1)Nc1cccc(-c2nnn[nH]2)c1 [7b] the IC50 (recombinant KPC-2 [2]) was > 1000 µM and the inhibition at 1000 µM (recombinant KPC-2 [2]; [4]) was 30%.

CCOc1cc(C(=O)O)nc2ccc(OC)cc12 [20a] was tested, and the IC50 (recombinant KPC-2 [1]; [5]) was > 500 µM and the inhibition at 500 µM (recombinant KPC-2 [1]; [4]) was 28%.

O=S(=O)(Nc1cccc(-c2nnn[nH]2)c1)c1ccc(S(=O)(=O)N2CCCC2)cc1 [10b] was tested, and the inhibition at 500 µM (recombinant KPC-2 [2]; [4]) was < 10%.

CCS(=O)(=O)Nc1cc(-c2ccncc2)n[nH]1 [22a] was tested, and the inhibition at 1000 µM (recombinant KPC-2 [1]; [4]) was < 10%.

With O=C(NC1CC1)c1ccc(-c2nnn[nH]2)cc1 [18a] the IC50 (recombinant KPC-2 [1]; [3]) was > 1000 µM and the inhibition at 1000 µM (recombinant KPC-2 [1]; [4]) was 18%.

For Cc1nn(CC(=O)O)c2nccc(-c3cnn(C)c3)c12 [26a], the IC50 (recombinant KPC-2 [1]; [3]) was > 830 µM and the inhibition at 830 µM (recombinant KPC-2 [1]; [4]) was 18%.

With CS(=O)(=O)Nc1ccc(C(N)=O)cc1 [6a] the IC50 (recombinant KPC-2 [1]; [3]) was > 1000 µM and the inhibition at 1000 µM (recombinant KPC-2 [1]; [4]) was 18%.

CS(=O)(=O)Nc1ccc2oc(=O)sc2c1 [31a] was tested, and the IC50 (recombinant KPC-2 [1]; [3]) was > 1000 µM and the inhibition at 1000 µM (recombinant KPC-2 [1]; [4]) was 11%.

COc1cc(OC)c2cc(C(=O)O)nnc2c1 [28a] was tested, and the IC50 (recombinant KPC-2 [1]; [3]) was > 500 µM and the inhibition at 500 µM (recombinant KPC-2 [1]; [4]) was 14%.

With CC(C)S(=O)(=O)Nc1ccc2c(c1)C(=O)N(C)CCO2 [15a] the IC50 (recombinant KPC-2 [1]; [3]) was > 660 µM and the inhibition at 660 µM (recombinant KPC-2 [1]; [4]) was 38%.

Cn1nccc1-c1cc(C(=O)O)n[nH]1 [27a] was tested, and the inhibition at 500 µM (recombinant KPC-2 [1]; [4]) was < 10%.

In the case of COc1ccc(NS(C)(=O)=O)cc1 [5a], the IC50 (recombinant KPC-2 [1]; [3]) is reported as > 500 µM and the inhibition at 500 µM (recombinant KPC-2 [1]; [4]) is reported as 13%.

For CN(Cc1cnccn1)Cc1cccc(C(=O)O)n1 [23a], the IC50 (recombinant KPC-2 [1]; [5]) was > 1000 µM and the inhibition at 1000 µM (recombinant KPC-2 [1]; [4]) was 26%.

O=S(=O)(Nc1cccc(-c2nnn[nH]2)c1)c1ccc(C(F)(F)F)cc1 [14b] was tested, and the IC50 (recombinant KPC-2 [2]) was > 500 µM.
